# How the values were obtained:
# Format in all cases: cell-based
# CHO-K1/GLUT4 cells = test: Quantification of GLUT4 translocation ratio (IN Cell Analyzer 1000)
# Experimental: CHO-K1 cells are transfected with pEGFPN1-GLUT4-myc plasmid using Lipofectamine 2000, and subsequently screened with G418 (800 µg/ml). The CHO-K1/GLUT4 stable cell line is obtained by picking up clones.
# CHO-K1/GLUT4 cells are seeded into 96-well plate. After cells reached 100% confluence, F12 medium is changed to 3T3-L1 medium and incubated for 2 days. 8-hour serum starvation later, cells are stimulated with insulin for 5 minutes, fixed with 3.7% formaldehyde for 15 minutes, and labeled with anti-myc monoclonal antibody and secondary antibody (Alexa Fluor 647 conjuncted anti-mouse antibody). Fluorescence pictures were obtained by IN Cell Analyzer 1000 Instrument (GE Healthcare) with the same exposure time. The basic unit comprises several core components including a Nikon microscope and a high-resolution CCD camera. Membrane-located GLUT4 is represented by the intensity of red fluorescence (Alex fluor 647) and normalized by the intensity of green fluorescence (GLUT4-EGFP), which is assigned to the total GLUT4 [46].
# [1] = tested on: IR (Tyr1146), AKT (Ser473) in CHO-K1 cells; test: Western blot of IR and AKT phosphorylation; details: insulin 170 nM, 5 minutes, different doses of Rut
# Experimental: (§1) Insulin sensitizing effects of Rut are investigated in CHO-K1 and 3T3-L1 adipocytes. After incubation with compounds in serum-free medium for indicated time, cells are stimulated with insulin (170 nM for CHO-K1 cells and 17 nM for 3T3-L1 adipocytes) for 5 min, and the stimulation is stopped by ice-cold PBS. The effect of Rut on insulin signaling is also investigated in CHO-K1 cells. In the assay, cells are stimulated with Rut (20 µM, 8 h) or insulin (170 nM, 5 min), and then lysed on ice. GLUT4 protein level is studied in the differentiated 3T3-L1 adipocytes (the 10th day after MDI stimulation). After incubation of compounds for 48 h, cells are lysed on ice. The proteins are resolved by SDS-polyacrylamide gel electrophoresis and electro-transferred to polyvinylidene difluoride membranes. The membrane is blocked by 5% skimmed milk and incubated with antibodies. Proteins are visualized by the ECL detecting system.
# [2] = tested on: IR (Tyr1146), AKT (Ser473) in 3T3-L1 adipocytes; test: Western blot of IR and AKT phosphorylation; details: insulin 17 nM, 5 minutes
# Experimental: as §1
# 3T3-L1 adipocytes = test: 2-Deoxyglucose uptake in 3T3-L1 adipocytes
# Experimental: 3T3-L1 adipocytes are fully differentiated (the 10th day after MDI stimulation) and seeded into 24-well plate. After incubation with compounds in serum-free medium containing 0.5% BSA for 8 hours, medium is changed to Krebs buffer containing […] insulin and incubated for 30 minutes. In the last 5 minutes, cells are incubated with 2-[^3H]-deoxy-D-glucose. The glucose uptake is stopped by ice-cold PBS, and the cells are then lysed with 0.1% Triton. Finally the radioactivity is calculated by a scintillation counter. Cytochalasin B is used to measure nonspecific uptake, and the value is subtracted from all the data. Radioactivity is normalized by total protein concentration that is measured by BCA kit.
# [3] = tested on: GLUT4 in 3T3-L1 adipocytes; test: Western blot of GLUT4 protein level; details: Rut 20 µM
# Experimental: as §1, with “After incubation of compounds for 48 h, cells are lysed on ice.” left out
# LXRα:RXRα = target: T1, LXRα:RXRα (Homo sapiens, UniProt P19793+Q13133); test: Transient transfection luciferase assay in HEK293 cells (LXRE); details: HEK293, 24 h
# T1 construct: expressed in transfected cells; host or cells: HEK293
# Experimental: HEK293 cells are transiently transfected by Lipo2000 respectively with RXRα, PPARγ, FXR, and LXRα plasmids plus pGL3-RXRE luciferase vector and renilla luciferase vector for 5 hours. Cells are then incubated with indicated concentrations of compounds for another 24 h and finally lysed. Luciferase activities are measured using Dual Luciferase Assay System kit. Rut dose-dependently activates (a) RXRα:RXRα and (b) PPARγ:RXRα activities. Rut has no effects on (c) FXR: RXRα and (d) LXRα:RXRα activities. Data are presented as means ± s.e.m (*P<0.05, **P<0.01) from three independent experiments.
# HEK293 cells are transfected with luciferase reporter plus Renilla luciferase vector and other plasmids if needed for 5 hours, and cells are then incubated with indicated concentrations of compounds for another 24 h. Finally cells are lysed and luciferase activities are measured using Dual Luciferase Assay System kit. The results are presented as the fold activation relative to untreated cells after normalization with Renilla luciferase values. Each experiment is repeated at least twice, with each sample analyzed in triplicates.
# T1 sequence (Q13133 whole entry): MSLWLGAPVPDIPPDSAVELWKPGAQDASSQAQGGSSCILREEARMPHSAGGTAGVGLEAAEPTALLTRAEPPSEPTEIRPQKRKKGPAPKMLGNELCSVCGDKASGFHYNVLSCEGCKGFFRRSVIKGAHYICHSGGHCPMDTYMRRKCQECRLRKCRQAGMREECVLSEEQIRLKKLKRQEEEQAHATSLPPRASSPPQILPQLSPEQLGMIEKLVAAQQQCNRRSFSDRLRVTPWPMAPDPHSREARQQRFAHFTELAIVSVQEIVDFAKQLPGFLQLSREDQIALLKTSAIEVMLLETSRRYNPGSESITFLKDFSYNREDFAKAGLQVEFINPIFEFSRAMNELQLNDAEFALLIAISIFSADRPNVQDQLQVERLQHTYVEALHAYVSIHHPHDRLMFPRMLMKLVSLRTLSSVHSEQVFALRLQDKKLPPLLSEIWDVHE
# T1 sequence (P19793 whole entry): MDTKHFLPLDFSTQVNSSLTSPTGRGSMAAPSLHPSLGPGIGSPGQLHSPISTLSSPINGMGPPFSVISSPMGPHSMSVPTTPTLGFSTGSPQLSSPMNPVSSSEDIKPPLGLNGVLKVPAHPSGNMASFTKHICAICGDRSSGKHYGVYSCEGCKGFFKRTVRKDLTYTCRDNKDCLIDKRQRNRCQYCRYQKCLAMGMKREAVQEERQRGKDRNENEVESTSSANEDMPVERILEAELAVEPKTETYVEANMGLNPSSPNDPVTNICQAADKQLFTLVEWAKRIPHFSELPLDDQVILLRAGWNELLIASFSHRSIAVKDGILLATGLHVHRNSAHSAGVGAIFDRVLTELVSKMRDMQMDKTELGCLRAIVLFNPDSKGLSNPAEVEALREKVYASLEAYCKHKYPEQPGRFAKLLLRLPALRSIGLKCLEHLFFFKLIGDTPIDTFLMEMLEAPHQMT
compound,measurement,setting,value
C=CC(C)(C)c1cc2cc3c(cc2oc1=O)O[C@H](C(C)(C)OC(C)=O)C3 [(+)-Rutamarin],EC50,"CHO-K1/GLUT4 cells; Cricetulus griseus, CHO-K1, cells pre-treated with Rut 8 hours, then insulin (170 nM) 5 minutes, read-out: EC50, enhancement of insulin-induced GLUT4 translocation",7 µM
same,basal GLUT4 translocation without insulin induction,"CHO-K1/GLUT4 cells; Rut 20 µM, 8 h",induces basal GLUT4 translocation
same,effect on pervanadate-stimulated GLUT4 translocation,"CHO-K1/GLUT4 cells; Rut 20 µM, pervanadate 100 µM",cannot enhance
same,enhancement on insulin-induced GLUT4 translocation compared with compound-2 and pervanadate,"CHO-K1/GLUT4 cells; insulin 170 nM, C2 10 µM, pervanadate 100 µM, Rut 5, 10, 20 µM",even stronger
same,insulin-induced phosphorylation of IR and AKT,[1],enhances
same,insulin-stimulated phosphorylation levels of IR and AKT,[2],largely increased
same,glucose uptake without insulin stimulation,"3T3-L1 adipocytes; Rut 20 µM, 8 hours",improves glucose uptake
same,insulin-induced glucose uptake,"3T3-L1 adipocytes; insulin 17 nM, Rut 5–25 µM, C2 10 µM",dose-dependently enhances
same,GLUT4 protein level,[3]; 8th hour,no obvious increment
same,GLUT4 protein level,[3]; 48 hours,potently increases
same,activity of LXR-response element (LXRE),LXRα:RXRα,without influencing

# From article PMC3288053 (PLoS ONE, 2012)
